This is an account of results in US7207289B2, “Method of feeding the cattle with feed additives that increases beef production and reduces liver abscess” (Intervet International B.V., priority 2004, dated 2007).

For one experiment, the system named is cattle. The conditions noted are these: cited from earlier work.
In the next experiment the test system is steers. The experiment in a line: Study V-0238-0017: effects of Rumensin plus Tylan and zilpaterol on liver abscess rates in feedlot steers. In kind it is in vivo, cattle. The source says: In study number V-0238-0017 a total of 3,945 steers were used to test the effects of Rumensin® plus Tylan® and zilpaterol on feedlot performance, liver abscess rates, and carcass traits. The inventors discovered that Tylan® and Rumensin® could be removed from the diet for the last 30 days to feed zilpaterol without negatively affecting liver abscess rates. In fact it was discovered that zilpaterol decreased the incidence of liver abscesses.
Study Number V-0238-0017, Effects of Zilpaterol on Liver Abscesses

Another experiment deals with steers and heifers. The experiment in a line: Zilpaterol efficacy studies V-0238-0019, V-0238-0020, V-0238-0021 (pooled analysis): liver abscesses and feed intake. It counts as in vivo, cattle. The source says: All of these cattle had been fed Tylan® up to the last 20 to 40 days on feed at which time Tylan® was removed and cattle were either fed a control diet without Tylan®, Rumensin® or zilpaterol or cattle were fed a treatment diet containing just zilpaterol. While the mechanism by which zilpaterol decreases liver abscess is not fully clear at this time, it seems that zilpaterol functions to decrease liver abscesses by decreasing feed intake. Because the liver abscesses discovered at slaughter are formed during the last ˜60 days or less on feed and this is the same time zilpaterol is fed, a decrease in feed intake would result in a decrease in acid production and possibly a decrease in rumen wall lesions and rumenitis.
Summary of Zilpaterol Efficacy Studies (Pooled Analysis), Study Numbers, V-0238-0019, V-0238-0020, and V-0238-0021 on Liver Abscesses and Feed Intake

As to `CC[C@H]1OC(=O)C[C@@H](O)[C@H](C)[C@@H](O[C@@H]2O[C@H](C)[C@@H](O[C@H]3C[C@@](C)(O)[C@@H](O)[C@H](C)O3)[C@H](N(C)C)[C@H]2O)[C@@H](CC=O)C[C@@H](C)C(=O)/C=C/C(C)=C/[C@@H]1CO[C@@H]1O[C@H](C)[C@@H](O)[C@@H](OC)[C@H]1OC` [Tylan, Tylosin], in the experiment on cattle (Laudert and Vogel (1994)), the “feed intake and dressing percentage” value is listed as “only minor effects”; the “gain and feed to gain ratio” value was “improved”. In addition, in the experiment on cattle (Potter et al. (1985)), the average daily gain result is “improved” and the feed intake entry is on record as “no effect”. Also, the “liver abscesses being reduced” value in the experiment on cattle (cattle treated with Tylan, typical) was 63 to 71%.

Take `CC(C)NC1CCn2c(=O)[nH]c3cccc(c32)C1O` (stereo not shown) [Zilpaterol]: the “Live Abscess, %” value in the experiment with steers (166-day study, 3,945 steers, 10 pens per treatment, zilpaterol fed for the last 30 days on feed) came out at 13.29%. The “incidence of liver abscesses (effect in words)” value with steers (study V-0238-0017, steers) is reported as “decreased”. In addition, the “Average Daily Dry Matter Intake, lbs.” value in the experiment on steers and heifers (pooled analysis of three studies, zilpaterol for the last 20 or 40 days) is recorded as 18.69 lbs. Also, the “% of Livers Condemned for Abscesses” value with steers and heifers (pooled, 957 animals, Tylan removed for the last 20 to 40 days, diet containing just zilpaterol) stood at 19.1%. Moreover, in the experiment with steers and heifers (steers and heifers supplemented for 20 or 40 days), the “liver abscesses (effect in words)” value is recorded as “significantly decreased”.
